{"source": "patent US10781224B2", "about": "“Bis(oxymethyl)phosphinic acid and biogenic metal salts thereof as regulators of plant growth and development” (priority 2016, dated 2020)", "tested_on": "winter wheat (Kazan 560 variety)", "test": "Field study: winter wheat seed treatment and spraying, yield and quality of the grain", "format": "in vivo", "conditions": "for Field germination, % / Grain mass from the main ear / Number of grains in an ear / Viability, % / Yield, dt/ha: winter wheat", "method": "Field studies were conducted for the BHMPA Mg-salt. The effect of treatment winter wheat seeds (Kazan 560 variety) with BHMPA Mg-salt solutions on the yield and quality of the grain was examined. The field experiment was conducted at a branch of a fallow rotation. The seeds were sowed on Sep. 1, 2015, in an area covering 1.7 hectares of the experimental field located at the experimental base of Tatarstan Research Institute of Agriculture. For comparison, the seeds were treated with the BHMPA Mg-salt solution and the known growth-regulator Melaphen at the same concentrations, optimum for Melaphen.\nThe experiment was conducted for the following variants: • 1. Control (no seed treatment); • 2. Seed treatment with the BHMPA Mg-salt solution at a 1·10^−7% concentration; • 3. Seed treatment with the BHMPA Mg-salt solution at a 1·10^−7% concentration+spraying with the BHMPA Mg-salt solution at a 1·10^−8% concentration upon vegetation during spring tillering and earing phases; • 4. Seed treatment with the growth regulator Melaphen at a 1·10^−7% concentration; • 5. Seed treatment with Melaphen at a 1·10^−7% concentration and spraying with Melaphen at a 1·10^−8% concentration upon vegetation during spring tillering and earing phases.\nThe seeds were treated with the experimental compounds together with a seed disinfectant at a rate of 10 ml/T. The vegetating plants were treated at a rate of 5 ml/ha. Identical field operations appropriate for that zone as well as plant protection measures against weeds and disease, were applied in all cases.\nResults of field experiments with BHMPA Mg-salt as the main growth-regulating component of said pre-sowing seed treatment combined with additional treatment of winter wheat plants with other claimed BHMPA salts, are presented in Table XXXV.", "key": {"[1]": {"conditions": "seed treatment 1 · 10^−7% + spraying plants with the same substance 1 · 10^−8%"}}}
{"smiles": "O=P([O-])(CO)CO.O=P([O-])(CO)CO.[Mg+2]", "note": "[Mg-salt, Magnesium BHMPA Salt]", "values": [{"measurement": "plant viability", "setting": "field, seed treatment plus additional spraying during spring tillering and earing phases", "result": "up to 61%"}, {"measurement": "yield of winter wheat", "setting": "field, seeds treated at 1·10^−7% and plants sprayed with 1·10^−8%, control 21.7 dt/ha", "result": 30.7, "unit": "dt/ha"}, {"measurement": "plant viability", "setting": "winter wheat Kazan 560, field, pre-sowing seed treatment, control 41%", "result": "up to 55%"}, {"measurement": "germination rate (field)", "setting": "winter wheat Kazan 560, field, pre-sowing seed treatment, control 67%", "result": "up to 70%"}, {"measurement": "Field germination, %", "setting": "seed treatment 1 · 10^−7%", "result": 70, "unit": "%"}, {"measurement": "Grain mass from the main ear", "setting": "seed treatment 1 · 10^−7%", "result": 1.1, "unit": "g"}, {"measurement": "Number of grains in an ear", "setting": "seed treatment 1 · 10^−7%", "result": 31}, {"measurement": "Viability, %", "setting": "seed treatment 1 · 10^−7%", "result": 55, "unit": "%"}, {"measurement": "Yield, dt/ha", "setting": "seed treatment 1 · 10^−7%", "result": 29.2, "unit": "dt/ha"}, {"measurement": "Field germination, %", "setting": "[1]", "result": 70, "unit": "%"}, {"measurement": "Grain mass from the main ear", "setting": "[1]", "result": 1.1, "unit": "g"}, {"measurement": "Number of grains in an ear", "setting": "[1]", "result": 32}, {"measurement": "Viability, %", "setting": "[1]", "result": 61, "unit": "%"}, {"measurement": "Yield, dt/ha", "setting": "[1]", "result": 30.7, "unit": "dt/ha"}]}
